Measured values reported in ChEMBL document CHEMBL4007389, “Discovery and evaluation of inhibitors to the immunosuppressive enzyme indoleamine 2,3-dioxygenase 1 (IDO1): Probing the active site-inhibitor interactions” (Eur J Med Chem, 2017).

Columns and labels:
[1] = target: T1, Indoleamine 2,3-dioxygenase 1 (Homo sapiens, UniProt P14902); test: Inhibition of recombinant human IDO1 expressed in bacterial expression system using L-Tryptophan as substrate after 25 mins in absence of GSH and presence of tween20 by fluorescence assay
Target sequence in this assay (P14902 whole entry): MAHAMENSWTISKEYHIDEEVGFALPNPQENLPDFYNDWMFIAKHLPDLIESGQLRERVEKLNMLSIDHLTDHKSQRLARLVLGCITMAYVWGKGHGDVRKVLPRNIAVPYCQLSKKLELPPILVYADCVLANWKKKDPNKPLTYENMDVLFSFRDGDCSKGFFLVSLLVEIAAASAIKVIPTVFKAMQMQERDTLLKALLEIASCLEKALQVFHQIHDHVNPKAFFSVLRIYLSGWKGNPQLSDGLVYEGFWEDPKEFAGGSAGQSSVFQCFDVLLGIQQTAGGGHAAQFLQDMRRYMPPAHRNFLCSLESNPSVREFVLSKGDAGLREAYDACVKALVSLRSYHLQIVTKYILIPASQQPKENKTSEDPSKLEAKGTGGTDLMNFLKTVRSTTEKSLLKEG

[2] = target: Indoleamine 2,3-dioxygenase 1 (Homo sapiens, UniProt P14902, S167A)
Homo sapiens = species on record: Homo sapiens; test: Selectivity ratio of IC50 for recombinant human IDO1 S167A mutant expressed in Escherichia coli SG13009(pREP4) to IC50 for recombinant human IDO1 expressed in bacterial expression system
[3] = target: T1, Indoleamine 2,3-dioxygenase 1; test: Inhibition of full length recombinant human His-tagged IDO1 expressed in mouse LLTC cells using L-tryptophan as substrate after 24 hrs; format: cell-based
Target sequence in this assay (P14902 whole entry): as above

[4] = target: T1, Indoleamine 2,3-dioxygenase 1; test: Inhibition of recombinant human IDO1 expressed in bacterial expression system at 400 uM using L-Tryptophan as substrate after 25 mins by fluorescence assay relative to control
Target sequence in this assay (P14902 whole entry, looked up): as the sequence (P14902 whole entry) above

[5] = Cytotoxicity against mouse LLTC cells assessed as reduction in cell viability after 24 hrs by MTT assay; format: cell-based; details: read-out: LC50
[6] = tested on: Indoleamine 2,3-dioxygenase 1 (Homo sapiens), P14902 [S167A]; test: Inhibition of recombinant human IDO1 S167A mutant expressed in Escherichia coli SG13009(pREP4) at 20 uM using L-Tryptophan as substrate after 25 mins by fluorescence assay relative to control
[7] = target: T1, Indoleamine 2,3-dioxygenase 1; test: Inhibition of recombinant human IDO1 expressed in bacterial expression system at 100 uM using L-Tryptophan as substrate after 25 mins by fluorescence assay relative to control
Target sequence in this assay (P14902 whole entry, looked up): as the sequence (P14902 whole entry) above

[8] = tested on: Indoleamine 2,3-dioxygenase 1 (Homo sapiens), P14902 [C129A]; test: Inhibition of recombinant human IDO1 C129A mutant expressed in Escherichia coli SG13009(pREP4) at 20 uM using L-Tryptophan as substrate after 25 mins by fluorescence assay relative to control
[9] = target: Indoleamine 2,3-dioxygenase 1 (Homo sapiens, UniProt P14902, C129A); test: Inhibition of recombinant human IDO1 C129A mutant expressed in Escherichia coli SG13009(pREP4) using L-Tryptophan as substrate after 25 mins by fluorescence assay
[10] = target: T1, Indoleamine 2,3-dioxygenase 1; test: Inhibition of recombinant human IDO1 expressed in bacterial expression system at 250 uM using L-Tryptophan as substrate after 25 mins by fluorescence assay relative to control
Target sequence in this assay (P14902 whole entry, looked up): as the sequence (P14902 whole entry) above

[11] = target: T1, Indoleamine 2,3-dioxygenase 1; test: Inhibition of recombinant human IDO1 expressed in bacterial expression system at 200 uM using L-Tryptophan as substrate after 25 mins by fluorescence assay relative to control
Target sequence in this assay (P14902 whole entry, looked up): as the sequence (P14902 whole entry) above

[12] = tested on: Indoleamine 2,3-dioxygenase 1 (Homo sapiens), P14902 [S167A]; test: Inhibition of recombinant human IDO1 S167A mutant expressed in Escherichia coli SG13009(pREP4) at 400 uM using L-Tryptophan as substrate after 25 mins by fluorescence assay relative to control
[13] = target: T1, Indoleamine 2,3-dioxygenase 1; test: Inhibition of recombinant human IDO1 expressed in bacterial expression system at 350 uM using L-Tryptophan as substrate after 25 mins by fluorescence assay relative to control
Target sequence in this assay (P14902 whole entry, looked up): as the sequence (P14902 whole entry) above

[14] = target: T1, Indoleamine 2,3-dioxygenase 1; test: Inhibition of recombinant human IDO1 expressed in bacterial expression system using L-Tryptophan as substrate after 25 mins in absence of GSH and tween20 by fluorescence assay
Target sequence in this assay (P14902 whole entry): as above

[15] = target: T1, Indoleamine 2,3-dioxygenase 1; test: Inhibition of recombinant human IDO1 expressed in bacterial expression system using L-Tryptophan as substrate after 25 mins in presence of GSH and tween20 by fluorescence assay
Target sequence in this assay (P14902 whole entry): as above

Chain of Indoleamine 2,3-dioxygenase 1 (Homo sapiens), P14902 [C129A] (P14902 whole entry C129A): as the sequence (P14902 whole entry) above, with C129A counted along it
Chain of Indoleamine 2,3-dioxygenase 1 (Homo sapiens, UniProt P14902, C129A) (P14902 whole entry C129A): as the sequence (P14902 whole entry) above, with C129A counted along it
Chain of Indoleamine 2,3-dioxygenase 1 (Homo sapiens), P14902 [S167A] (P14902 whole entry S167A): as the sequence (P14902 whole entry) above, with S167A counted along it
Chain of Indoleamine 2,3-dioxygenase 1 (Homo sapiens, UniProt P14902, S167A) (P14902 whole entry S167A): as the sequence (P14902 whole entry) above, with S167A counted along it

Compound	IC50 [1]	IC50 [2]	Ratio IC50 (Homo sapiens)	other results
O=[N+]([O-])c1cccc2nsnc12	320 µM	614 µM	2	
CC1=NC(SCc2ccc(Cl)cc2Cl)=NC(=O)C1				IC50 [3]: 217 µM; inhibition [4]: -8%; CC50 at 24 h [5]: > 125 µM
Cc1ccccc1-c1nc2c3ccccc3c3ccccc3c2[nH]1	512 µM	464 µM	1	
Cc1ccc2c(c1)c1ccc3c(c1n2C)C(=O)C=CC3=O	46.7 µM	1000 µM	21.4	inhibition [6]: -4%
COc1ccc(Nc2ccc([N+](=O)[O-])c3nonc23)cc1	96 µM			
NC1=C(c2ccccc2)C(=O)c2ccccc21				inhibition [7]: 14%
CC(=O)OC1=C(c2ccccc2)C(=O)c2ccccc21	266 µM			
CC(=O)OCCn1c2nc(=O)[nH]c(=O)c-2nc2cc(C)c(C)cc21	31.3 µM	1000 µM	32	inhibition [6]: -8%
COc1c(NC(C)=O)c2ccccc2c2ccccc12	35.6 µM	1000 µM	28.1	inhibition [6]: -9%
NNC(=O)CNc1cccc(Br)c1	1000 µM			inhibition [8]: 30.8%; IC50 [9]: 44.9 µM
COc1c(O)ccc2c1CN1CCc3cc4c(cc3C1C2)OCO4 (configuration not stated)	35.6 µM	1000 µM	28.1	
O/N=C1\c2ccccc2NC1c1ccccc1 (configuration not stated)	510 µM	366 µM	1	
Cc1cccc2c1c1ccc3c(c1n2C)C(=O)C=CC3=O	35.6 µM	1000 µM	28.1	inhibition [6]: -5%
CC[C@@H](CNc1cc(OC)cc2cccnc12)NC1CCCCC1	54.1 µM	1000 µM	18.5	inhibition [6]: -6%
Fc1ccccc1-c1nc2c3ccccc3c3ccccc3c2[nH]1	231 µM	108 µM	0.5	
c1ccc(-c2nc3c4ccccc4c4ccccc4c3[nH]2)cc1				inhibition [10]: 8%
Sc1ccc(Cl)cc1	7.9 µM	3.5 µM	0.5	IC50 [3]: 9.2 µM; CC50 at 24 h [5]: 35 µM
O=C1C(c2ccccc2)=[N+]([O-])c2ccccc21	0.87 µM	3 µM	3	IC50 [3]: 2.3 µM; CC50 at 24 h [5]: 14 µM
COc1ccc(-c2cc3ccccc3[nH]2)cc1				inhibition [11]: 16%
O=[N+]([O-])c1ccc(NCSc2ccc(Cl)cc2)cc1	0.8 µM	0.1 µM	0.125	CC50 at 24 h [5]: 40 µM
Oc1ccc(-c2nc3c4ccccc4c4ccccc4c3[nH]2)cc1	522 µM		> 2	inhibition [12]: 14%
c1ccc(-c2c[nH]cn2)cc1				CC50 at 24 h [5]: > 1150 µM
O=[N+]([O-])c1ccc(Nc2ccc(Br)cc2)c2nonc12	68 µM			
CCn1c2ccccc2nc2cc3c(cc21)c(Cl)c(=O)c1ccccc13	42.5 µM	980 µM	23.1	inhibition [6]: 2%
O=C(O)c1cc(F)c2nonc2c1Nc1ccc(I)cc1F	43 µM	47 µM	1	IC50 [3]: 168 µM; CC50 at 24 h [5]: > 233 µM

Compound	IC50 [1]	IC50 [2]	Ratio IC50 (Homo sapiens)	other results
CC1=CC(C)(C)NC(=S)N1c1cccc2cc(S(N)(=O)=O)ccc12	27.6 µM	1000 µM	36.2	inhibition [6]: -8%
COc1ccc2c(c1)c1ccc3c(c1n2C)C(=O)C=CC3=O	25.5 µM	1000 µM	39.3	inhibition [6]: -5%
COC12C(COC(N)=O)C3=C(C(=O)C(C)=C(N)C3=O)N1CC1C2N1C (configuration not stated)	15.7 µM	1000 µM	63.6	inhibition [6]: -4%
COc1ccc(C2=[N+]([O-])c3ccccc3C2=O)cc1	1.6 µM	63 µM	39	IC50 [3]: 2.3 µM; CC50 at 24 h [5]: 42 µM
O=c1c(O)cccc2cc(O)c(O)c(O)c12 [PURPUROGALLIN]	60 µM	1000 µM	16.7	inhibition [6]: -4%
O=[N+]([O-])c1ccccc1NCSc1ccc(Cl)cc1	63 µM			IC50 [3]: 6.3 µM; CC50 at 24 h [5]: 52 µM
c1ccc(NCCSc2nc3ccccc3s2)cc1	115 µM			inhibition [8]: 70.8%; IC50 [9]: 8.2 µM
Cc1ccccc1-c1nc2ccccc2[nH]1				inhibition [4]: -2%
CC(=O)NC1=C(c2ccccc2)C(=O)c2ccccc21				inhibition [7]: 14%
Oc1cccc(-c2nc3c4ccccc4c4ccccc4c3[nH]2)c1	112 µM	173 µM	2	
Cc1ccc(NCSc2ccc(Cl)cc2)cc1				inhibition [10]: -1%
Oc1ccccc1-c1nc2ccccc2[nH]1				inhibition [4]: 1%
c1ccc2c(c1)Nc1ccncc1S2	422 µM			inhibition [8]: 38.8%; IC50 [9]: 31.6 µM
COc1ccc(C2=Nc3ccccc3C2=O)cc1				inhibition [13]: 5%
O=C1c2ccccc2C(=O)C1c1ccccc1				inhibition [4]: 20%
COc1cc2c(cc1OC)[N+]([O-])=C(c1ccccc1)C2=O	4.1 to 60 µM	206 to 1000 µM	16.7 to 50	IC50 [14]: 9.3 µM; IC50 [3]: 4.3 µM; CC50 at 24 h [5]: 25 µM; inhibition [6]: 0%; IC50 [15]: 1.5 µM
COC(=O)c1cc(F)c2nonc2c1Nc1ccc(I)cc1F				inhibition [10]: 3%
O=C1c2ccccc2CC1c1ccccc1 (configuration not stated)				inhibition [11]: 21%
O=[N+]([O-])c1ccc(Sc2ccc(F)cc2)c2nonc12	8.8 µM	17 µM	2	IC50 [3]: 4.6 µM; CC50 at 24 h [5]: > 50 µM
Cn1c2ccccc2c2ccc3c(c21)C(=O)C=CC3=O	42.5 µM	1000 µM	23.5	inhibition [6]: -2%
C=Cc1cc(OC)c2c(c1)c(=O)oc1c2cc(OC)c2c(O)ccc([C@@H]3O[C@H](C)[C@H](O)[C@@](C)(O)[C@H]3O)c21	22.6 µM	230 µM	10.2	inhibition [6]: 8%
O=[N+]([O-])c1ccc(Sc2cccc[n+]2[O-])c2nonc12	24 to 60 µM	108 to 1000 µM	5 to 16.7	inhibition [6]: -1%
Cc1cc(I)ccc1Nc1cc2nonc2cc1C(=O)O	41 µM	42 µM	1	
Cc1cc(I)ccc1Nc1cc2no[n+]([O-])c2cc1C(=O)O	23 µM		> 44	inhibition [12]: 2%
Nc1nonc1C(=NO)Nc1ccc(F)c(Cl)c1				CC50 at 24 h [5]: > 5 µM
